US20230416248A1, “COMPOUNDS AND USES THEREOF” (Foghorn Therapeutics Inc., priority 2020, published 2023)

Experiments:
BRM = biological target: T1, BRM (Homo sapiens, UniProt P51531); test: ATPase catalytic activity of BRM, ADP-Glo in vitro biochemical assay; settings: for IC50: ATPase catalytic activity, ADP-Glo, 30 nM BRM, 400 μM ATP; for Ratio*: ratio of BRG1 IC50 to BRM IC50
T1 construct: made in house; host or cells: High Five insect cells
Method in brief: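 ADP-Glo luminescence, after depletion of leftover ATP and conversion of ADP, reported the activity. The 1 h room-temperature reaction held 400 μM ATP, 20 nM salmon sperm DNA and 30 nM BRM in 20 mM Tris pH 8, 20 mM MgCl2, 50 mM NaCl, 0.1% Tween-20, 1 mM DTT.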

BRG-1 = biological target: T2, BRG-1 (Homo sapiens, UniProt P51532); test: ATPase catalytic activity of BRG-1, ADP-Glo in vitro biochemical assay; settings: ATPase catalytic activity, ADP-Glo; 30 nM BRG-1, 400 μM ATP; read-out: BRG1 IC50
T2 construct: made in house; host or cells: High Five insect cells
T2 sequence (P51532 whole entry): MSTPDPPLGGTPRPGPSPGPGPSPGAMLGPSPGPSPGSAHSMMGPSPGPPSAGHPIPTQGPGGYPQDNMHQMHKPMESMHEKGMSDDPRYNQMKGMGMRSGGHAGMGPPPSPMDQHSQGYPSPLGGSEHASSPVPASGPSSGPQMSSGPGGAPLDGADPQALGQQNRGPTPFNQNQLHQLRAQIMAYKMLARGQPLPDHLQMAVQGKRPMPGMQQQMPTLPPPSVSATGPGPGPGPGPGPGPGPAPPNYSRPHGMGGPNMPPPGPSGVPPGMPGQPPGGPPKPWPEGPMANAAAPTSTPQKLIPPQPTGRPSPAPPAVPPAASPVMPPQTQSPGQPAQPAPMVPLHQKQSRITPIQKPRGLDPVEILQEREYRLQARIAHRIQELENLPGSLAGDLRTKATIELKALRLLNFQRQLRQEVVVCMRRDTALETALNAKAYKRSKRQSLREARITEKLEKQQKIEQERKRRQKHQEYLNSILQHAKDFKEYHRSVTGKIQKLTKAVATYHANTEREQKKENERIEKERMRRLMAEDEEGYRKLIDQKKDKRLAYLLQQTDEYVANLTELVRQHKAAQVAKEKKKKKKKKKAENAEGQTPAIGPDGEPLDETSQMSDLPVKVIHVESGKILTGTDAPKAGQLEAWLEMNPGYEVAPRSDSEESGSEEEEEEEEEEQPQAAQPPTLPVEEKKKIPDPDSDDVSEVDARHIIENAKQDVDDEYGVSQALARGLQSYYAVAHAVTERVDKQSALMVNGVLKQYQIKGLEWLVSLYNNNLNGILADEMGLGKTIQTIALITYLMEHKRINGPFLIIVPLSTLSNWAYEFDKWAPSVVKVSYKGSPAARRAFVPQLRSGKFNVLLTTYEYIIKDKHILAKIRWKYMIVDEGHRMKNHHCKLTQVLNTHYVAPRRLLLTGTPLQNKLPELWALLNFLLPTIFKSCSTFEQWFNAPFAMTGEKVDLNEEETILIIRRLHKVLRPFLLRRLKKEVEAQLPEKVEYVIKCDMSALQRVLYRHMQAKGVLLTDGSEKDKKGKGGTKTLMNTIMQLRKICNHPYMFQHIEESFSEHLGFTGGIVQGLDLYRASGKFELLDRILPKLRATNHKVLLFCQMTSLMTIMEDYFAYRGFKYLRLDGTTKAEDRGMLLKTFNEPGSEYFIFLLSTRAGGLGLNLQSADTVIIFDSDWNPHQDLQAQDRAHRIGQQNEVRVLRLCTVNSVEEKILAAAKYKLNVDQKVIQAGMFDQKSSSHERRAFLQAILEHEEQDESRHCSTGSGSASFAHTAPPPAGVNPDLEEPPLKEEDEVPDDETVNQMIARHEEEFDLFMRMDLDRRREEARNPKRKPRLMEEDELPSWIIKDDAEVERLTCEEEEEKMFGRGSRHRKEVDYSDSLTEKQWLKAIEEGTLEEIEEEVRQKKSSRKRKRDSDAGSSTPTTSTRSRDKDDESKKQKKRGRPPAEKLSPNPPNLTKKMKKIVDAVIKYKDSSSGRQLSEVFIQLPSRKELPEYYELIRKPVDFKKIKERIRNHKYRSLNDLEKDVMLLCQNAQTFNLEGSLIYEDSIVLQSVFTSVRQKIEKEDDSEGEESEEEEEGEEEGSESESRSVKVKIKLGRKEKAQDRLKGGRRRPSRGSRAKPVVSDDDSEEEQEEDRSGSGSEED
Method in brief: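 ADP produced by BRG-1 was quantified by luciferase luminescence. A 60 min room-temperature ADP-to-ATP conversion followed a 40 min ATP-depletion step.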

T1 sequence (P51531 whole entry): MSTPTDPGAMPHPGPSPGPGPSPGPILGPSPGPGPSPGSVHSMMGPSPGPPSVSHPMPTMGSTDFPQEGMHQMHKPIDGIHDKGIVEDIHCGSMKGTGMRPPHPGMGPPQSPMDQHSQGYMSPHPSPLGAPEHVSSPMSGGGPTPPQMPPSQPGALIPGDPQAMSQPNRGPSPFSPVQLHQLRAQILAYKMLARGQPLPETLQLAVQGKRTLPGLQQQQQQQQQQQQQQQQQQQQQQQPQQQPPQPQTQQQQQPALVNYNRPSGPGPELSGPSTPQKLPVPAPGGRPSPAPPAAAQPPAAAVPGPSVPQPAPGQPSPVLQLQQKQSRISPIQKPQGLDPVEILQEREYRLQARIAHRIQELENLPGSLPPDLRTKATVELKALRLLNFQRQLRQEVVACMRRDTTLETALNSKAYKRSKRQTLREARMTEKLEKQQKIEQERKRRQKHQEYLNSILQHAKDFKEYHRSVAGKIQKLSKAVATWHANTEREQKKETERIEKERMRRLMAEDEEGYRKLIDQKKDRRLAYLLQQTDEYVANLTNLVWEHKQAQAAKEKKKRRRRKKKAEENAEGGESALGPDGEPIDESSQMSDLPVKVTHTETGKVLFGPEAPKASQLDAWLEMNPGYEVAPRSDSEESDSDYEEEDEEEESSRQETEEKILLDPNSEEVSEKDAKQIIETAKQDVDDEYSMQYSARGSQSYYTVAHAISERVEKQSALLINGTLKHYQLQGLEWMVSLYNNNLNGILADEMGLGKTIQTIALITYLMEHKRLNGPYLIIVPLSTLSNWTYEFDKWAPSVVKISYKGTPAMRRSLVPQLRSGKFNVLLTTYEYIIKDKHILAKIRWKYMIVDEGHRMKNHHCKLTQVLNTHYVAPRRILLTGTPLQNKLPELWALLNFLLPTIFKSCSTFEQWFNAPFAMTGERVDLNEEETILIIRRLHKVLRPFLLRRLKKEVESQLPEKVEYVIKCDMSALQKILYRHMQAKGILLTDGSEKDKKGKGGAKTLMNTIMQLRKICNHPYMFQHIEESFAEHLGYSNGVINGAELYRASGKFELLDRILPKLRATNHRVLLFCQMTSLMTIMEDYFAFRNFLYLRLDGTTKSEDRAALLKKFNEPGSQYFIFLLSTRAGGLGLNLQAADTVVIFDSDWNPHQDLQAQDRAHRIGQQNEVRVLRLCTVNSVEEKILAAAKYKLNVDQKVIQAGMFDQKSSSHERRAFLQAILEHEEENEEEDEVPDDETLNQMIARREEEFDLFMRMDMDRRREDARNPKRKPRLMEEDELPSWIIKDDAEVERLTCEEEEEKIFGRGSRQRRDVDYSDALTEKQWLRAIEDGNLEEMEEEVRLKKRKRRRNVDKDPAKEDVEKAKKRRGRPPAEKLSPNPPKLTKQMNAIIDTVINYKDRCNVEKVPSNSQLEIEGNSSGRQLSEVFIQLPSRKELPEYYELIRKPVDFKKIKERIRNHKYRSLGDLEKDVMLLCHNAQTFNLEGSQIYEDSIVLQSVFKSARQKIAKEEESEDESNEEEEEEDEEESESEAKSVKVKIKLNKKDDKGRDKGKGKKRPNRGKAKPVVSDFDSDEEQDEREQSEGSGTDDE

| IC50 (BRM) [nM] | Ratio* (BRM) | IC50 (BRG-1) [nM] | Structure (SMILES) |
| --- | --- | --- | --- |
| 24.5 | 15.63 | 384 | COc1cc(C(C)(F)F)ccc1-c1ccc2cnc(CNC(=O)c3ccc4c(c3)S(=O)(=O)CCOC4)cc2n1 [Compound 419] |
| 4.2 | 10.13 | 42.6 | Cc1ccc2c(c1)OCCN2c1ccc2cnc(CNC(=O)c3ccc4c(c3)S(=O)(=O)CCOC4)cc2n1 [Compound 420] |
| 56.8 | 14.57 | 828 | O=C(NCc1cc2nc(-c3cccc4c3CC3COCCN43)ccc2cn1)c1ccc2c(c1)S(=O)(=O)CCOC2 (stereo not drawn) [Compound 421] |
| 10.9 | 28.45 | 310 | O=C(NCc1cc2nc(-c3cccc(C4CC4)n3)ccc2nn1)c1cc(F)c2c(c1)S(=O)(=O)CCOC2 [Compound 422] |
| 15.2 | 32.23 | 491 | C[C@H]1COCc2ccc(C(=O)NCc3cc4nc(-c5cccc(C6CC6)n5)ccc4nn3)cc2S1(=O)=O [Compound 423] |
| 20.8 | 29.03 | 603 | O=C(NCc1cc2nc(-c3cccc(C4CC4)n3)cnc2cn1)c1cc(F)c2c(c1)S(=O)(=O)CCOC2 [Compound 424] |
| 101 | 9.58 | 966 | CC1CCc2ccc(-c3ccc4cnc(CNC(=O)c5ccc6c(c5)S(=O)(=O)CCOC6)cc4n3)nc2N1C1CC1 (stereo not drawn) [Compound 425] |
| 23.8 | 5.71 | 136 | CC1COc2ccc(-c3ccc4cnc(CNC(=O)c5ccc6c(c5)S(=O)(=O)CCOC6)cc4n3)nc2N1C (stereo not drawn) [Compound 426] |
| 47.3 | 9.12 | 431 | O=C(NCc1cc2nc(-c3cccc(OC4CC4(F)F)n3)ccc2cn1)c1ccc2c(c1)S(=O)(=O)CCOC2 (stereo not drawn) [Compound 427] |
| 50.3 | 6.45 | 324 | O=C(NCc1cc2nc(-c3cccc(N(CC4COC4)C4CC4)n3)ccc2cn1)c1ccc2c(c1)S(=O)(=O)CCOC2 [Compound 428] |
| 7.4 | 10.32 | 76.4 | Cc1cnc2c(c1C)CCCN2c1ccc2cnc(CNC(=O)c3ccc4c(c3)S(=O)(=O)CCOC4)cc2n1 [Compound 429] |
| 477 | 5.06 | 2410 | COc1c(-c2ccc3cnc(CNC(=O)c4ccc5c(c4)S(=O)(=O)CCOC5)cc3n2)cccc1C1CC1 [Compound 430] |
| 16.1 | 9.43 | 152 | C[C@@H]1CN(c2cccc(-c3ccc4cnc(CNC(=O)c5cc(Cl)c6c(c5)S(=O)(=O)[C@@H](C)COC6)cc4n3)n2)C[C@H](C)O1 [Compound 431] |
| 331 | 13.59 | 4500 | C[C@@H]1CN(c2cccc(-c3ccc4cnc(CNC(=O)c5ccc6c(c5)S(=O)(=O)CC[C@@H](C5CC5)O6)cc4n3)n2)C[C@H](C)O1 [Compound 433] |
| 118 | 13.52 | 1590 | O=C(NCc1cc2nc(-c3cncc(C4CC4)n3)ccc2cn1)c1cnc2c(c1)S(=O)(=O)CCCC2(F)F [Compound 434] |
| 230 | 18.45 | 4250 | C[C@@H]1CN(c2cccc(-c3ccc4cnc(CNC(=O)c5ccc6c(c5)S(=O)(=O)CC[C@H](C5CC5)O6)cc4n3)n2)C[C@H](C)O1 [Compound 435] |
| 15 | 15.10 | 226 | COC[C@H]1C[C@@H](N(C)c2cccc(-c3ccc4cnc(CNC(=O)c5ccc6c(c5)S(=O)(=O)CCOC6)cc4n3)n2)C1 [Compound 436] |
| 24.8 | 11.79 | 292 | CO[C@H]1CCN(c2cccc(-c3ccc4cnc(CNC(=O)c5ccc6c(c5)S(=O)(=O)CCOC6)cc4n3)n2)C[C@H]1C [Compound 437] |
| 31.8 | 11.23 | 357 | CO[C@@H]1CCN(c2cccc(-c3ccc4cnc(CNC(=O)c5ccc6c(c5)S(=O)(=O)CCOC6)cc4n3)n2)C[C@@H]1C [Compound 438] |
| 4.4 | 10.04 | 43.8 | COc1ccnc2c1CCCN2c1ccc2cnc(CNC(=O)c3ccc4c(c3)S(=O)(=O)CCOC4)cc2n1 [Compound 439] |
| 32.3 | 14.01 | 453 | Cc1cnc2c(n1)CCCN2c1ccc2cnc(CNC(=O)c3ccc4c(c3)S(=O)(=O)CCOC4)cc2n1 [Compound 440] |
| 11.7 | 8.52 | 99.5 | CN(C)c1cnc2c(c1)CCCN2c1ccc2cnc(CNC(=O)c3ccc4c(c3)S(=O)(=O)CCOC4)cc2n1 [Compound 441] |
| 16.4 | 10.89 | 178 | CN1CCN(c2ccc3cnc(CNC(=O)c4ccc5c(c4)S(=O)(=O)CCOC5)cc3n2)c2ncccc21 [Compound 442] |

| IC50 (BRM) [nM] | Ratio* (BRM) | IC50 (BRG-1) [nM] | Structure (SMILES) |
| --- | --- | --- | --- |
| 34.7 | 36.53 | 1270 | C[C@H]1COCc2ccc(C(=O)NCc3cc4nc(-c5cccc(C6CC6)n5)cnc4cn3)cc2S1(=O)=O [Compound 443] |
| 13 | 2.12 | 27.5 | CO[C@H]1CCS(=O)(=O)c2cc(C(=O)NCc3cc4nc(-c5cccc(N6C[C@@H](C)O[C@@H](C)C6)n5)ccc4cn3)ccc2C1 [Compound 444] |
| 20.4 | 32.29 | 658 | COCc1ccc2c(n1)N(c1ccc3cnc(CNC(=O)c4ccc5c(c4)S(=O)(=O)CCOC5)cc3n1)CCC2 [Compound 445] |
| 11.2 | 2.83 | 31.7 | CO[C@@H]1CCS(=O)(=O)c2cc(C(=O)NCc3cc4nc(-c5cccc(N6C[C@@H](C)O[C@@H](C)C6)n5)ccc4cn3)ccc2C1 [Compound 446] |
| 22.1 | 10.05 | 222 | COCc1cnc2c(c1)CCCN2c1ccc2cnc(CNC(=O)c3ccc4c(c3)S(=O)(=O)CCOC4)cc2n1 [Compound 447] |
| 263 | 13.96 | 3670 | CO[C@H](C)Cn1ccc2c(-c3ccc4cnc(CNC(=O)c5ccc6c(c5)S(=O)(=O)CCOC6)cc4n3)ccnc21 [Compound 448] |
| 34.9 | 14.08 | 491 | CO[C@@H](C)Cn1ccc2c(-c3ccc4cnc(CNC(=O)c5ccc6c(c5)S(=O)(=O)CCOC6)cc4n3)ccnc21 [Compound 449] |
| 14.9 | 12.27 | 183 | O=C(NCc1cc2nc(-c3cncc(C4CC4)n3)ccc2cn1)c1cnc2c(c1)S(=O)(=O)CCCCC2 [Compound 450] |
| 5 | 1.60 | 8 | C[C@@H]1CN(c2cccc(-c3ccc4cnc(CNC(=O)c5cnc6c(c5)S(=O)(=O)CCCCC6)cc4n3)n2)C[C@H](C)O1 [Compound 451] |
| 44 | 21.77 | 958 | C[C@H]1COCc2ncc(C(=O)NCc3cc4nc(-c5cccc(C6CC6)n5)ccc4cn3)cc2S1(=O)=O [Compound 452] |
| 27.4 | 21.75 | 595 | CCOc1cccc(-c2ccc3cnc(CNC(=O)c4cc(F)c5c(c4)S(=O)(=O)[C@@H](C)COC5)cc3n2)n1 [Compound 453] |
| 25.2 | 8.46 | 213 | C[C@@H]1CN(c2cccc(-c3ccc4cnc(CNC(=O)c5ccc6c(c5)S(=O)(=O)CCO[C@@H]6C5CC5)cc4n3)n2)C[C@H](C)O1 [Compound 454] |
| 18.5 | 21.49 | 398 | Cc1cc(C(=O)NCc2cc3nc(-c4cccc(N5C[C@@H](C)O[C@@H](C)C5)n4)ccc3cn2)cc2c1OCC[C@H](C)S2(=O)=O [Compound 456] |
| 5.9 | 8.14 | 48.3 | Cc1cc(C(=O)NCc2cc3nc(-c4cccc(N5C[C@@H](C)O[C@@H](C)C5)n4)ccc3cn2)cc2c1COC[C@H](C)S2(=O)=O [Compound 457] |
| 19.2 | 34.03 | 654 | C[C@H]1COCc2c(F)cc(C(=O)NCc3cc4nc(-c5cccc(C6CC6)n5)ccc4cn3)cc2S1(=O)=O [Compound 458] |
| 24.2 | 9.71 | 235 | CN(CCC(F)F)c1cccc(-c2ccc3cnc(CNC(=O)c4ccc5c(c4)S(=O)(=O)CCOC5)cc3n2)n1 [Compound 460] |
| 7.8 | 15.21 | 119 | Cc1cc2c(nc1C)N(c1ccc3cnc(CNC(=O)c4ccc5c(c4)S(=O)(=O)CCOC5)cc3n1)CCC2 [Compound 463] |
| 36 | 27.40 | 986 | C[C@H]1COCc2ccc(C(=O)NCc3cc4nc(-c5ccnc([C@H]6CC6(F)F)n5)ccc4cn3)cc2S1(=O)=O [Compound 464] |
| 102 | 15.25 | 1560 | C[C@H]1COCc2ccc(C(=O)NCc3cc4nc(-c5ccnc([C@@H]6CC6(F)F)n5)ccc4cn3)cc2S1(=O)=O [Compound 465] |
| 122 | 6.83 | 832 | O=C(NCc1cc2nc(-c3ccc4c(n3)N3CCOCC3C4)ccc2cn1)c1ccc2c(c1)S(=O)(=O)CCOC2 (stereo not drawn) [Compound 466] |
| 23.6 | 4.32 | 102 | C[C@@H]1CCc2ccc(-c3ccc4cnc(CNC(=O)c5ccc6c(c5)S(=O)(=O)CCOC6)cc4n3)nc2N1C [Compound 467] |
| 24.9 | 7.67 | 191 | C[C@H]1CCc2ccc(-c3ccc4cnc(CNC(=O)c5ccc6c(c5)S(=O)(=O)CCOC6)cc4n3)nc2N1C [Compound 468] |
